Data as given in US20050118576A1, “Novel method and assays for yeast-based drug screening” (priority 2000, published 2005).

Test system: W303-1B/Δydl120w::Kan^R yeast
Experiment: Growth of mutant yeast in medium supplemented with Fe(II) or Cu(II) ions (OD620)
Assay type: cell-based, Saccharomyces cerevisiae
Conditions: increasing concentrations of the metal salt, SD+ medium, 19 hours at 30° C., FIG. 2A/2B
Protocol: For this experiment, W303-1B/Δydl120w::Kan^R and wild-type yeast precultures were grown in YPD medium for 16-24 hours at 30° C. until OD600 0.4-0.6. The precultures were diluted into SD+ medium (6.7 mg/ml yeast nitrogen base w/o amino acids, 2 mg/ml yeast extracts, 0.04 mg/ml adenine sulfate, 0.0625 mg/ml uracil, 0.04 mg/ml L-leucine, 0.03 mg/ml L-histidine-HCl, 0.03 mg/ml L-tryptophane in water) supplemented with variable concentrations of FeSO4 (dissolved in 0.1 N HCl) or CuSO4 (dissolved in water). Aliquots of 100 microliter of yeast suspension were dispensed into single wells of a 96-well microtiter plate. In the experiments with FeSO4 supplementation (FIG. 2A) culture medium for W303-1B/Δydl120w::Kan^R and wild-type yeast contained 4% w/v glucose and all wells were adjusted to the same final concentration of HCl and to DMSO (1% v/v) to prevent the solvent from interfering with the results.
Following 19 hours of culture at 30° C., the growth of yeast was determined by OD620 measurement using a microplate reader.

`O=S(=O)([O-])[O-].[Fe+2]` [FeSO4] was tested, and the “growth of yeast as determined by OD620 measurement” value was “clearly inhibit the growth of the frataxin deficient yeast”.
With `O=S(=O)([O-])[O-].[Cu+2]` [CuSO4] the “growth of yeast as determined by OD620 measurement” value was “clearly inhibit the growth of the frataxin deficient yeast”.
